Reference: PubChem BioAssay (NCI)
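A five-concentration, 48-hour dose response in 96-well plates underlies each endpoint, interpolated linearly between surrounding concentrations. Here, GI50 denotes the concentration required for 50% inhibition of growth. TGI marks complete inhibition of growth.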

What was measured:
Experiment in all cases: NCI tumour cell line growth inhibition, 48 h
[1] = system: ACHN renal
[2] = system: COLO 205 colon
[3] = system: HOP-92 NSCLC
[4] = system: HT29 colon
[5] = system: IGROV1 ovarian
[6] = system: NCI-H460 lung
[7] = system: SF-295 CNS
[8] = system: SNB-19 CNS
[9] = system: SW-620 colon
[10] = system: T-47D breast
[11] = system: U251 CNS
[12] = system: UACC-257 melanoma
[13] = system: UO-31 renal
[14] = system: DU-145 prostate
[15] = system: HCC-2998 colon

SMILES	TGI [1] [µM]	TGI [2] [µM]	TGI [3] [µM]	TGI [4] [µM]	TGI [5] [µM]	TGI [6] [µM]	TGI [7] [µM]	TGI [8] [µM]	TGI [9] [µM]	TGI [10] [µM]	TGI [11] [µM]	TGI [12] [µM]	TGI [13] [µM]	TGI [14] [µM]	TGI [15] [µM]	GI50 [10] [µM]
CN1CCOC1(C)CO (stereo unspecified)	> 100	> 100	> 100	> 100	> 100	> 100	> 100	> 100	> 100	> 100	> 100	> 100	> 100			
COc1ccc2c3c1O[C@H]1C(O)CCC4(O)[C@@H](C2)NCC[C@]314 (stereo partly specified)	> 100	> 100	> 100	> 100	> 100		> 100	> 100	> 100	> 100	> 100	> 100	> 100	> 100		
CCOC(=O)c1nc2c(Cl)c3ncccc3cc2[nH]c1=O	> 100	> 100	> 100	> 100	> 100	65.8	> 100	> 100	> 100		> 100	> 100	> 100	> 100	43.8	
C=CCN1C[C@H](C)N([C@H](c2ccc(C(=O)N(CC)CCO)cc2)c2cccc(OC)c2)C[C@H]1C	> 100	> 100	> 100	> 100	> 100		> 100	> 100	> 100	> 100	> 100	> 100	> 100	> 100		
CC(=O)Oc1ccccc1-c1cc2ccccc2oc1=O	> 100	> 100		> 100		> 100	> 100	> 100	> 100	> 100		> 100	> 100	> 100	> 100	
COc1ccc2c(c1)CN1C(=N2)CSC1c1cc([N+](=O)[O-])ccc1Cl (stereo unspecified)	> 100	92.4	> 100	75.8	> 100	> 100	> 100	> 100	> 100	> 100	> 100	> 100	> 100		58.7	
CC(=O)c1csc2c1C(=O)c1scc(C(C)=O)c1C2=O	3.24	3.63	3.92	4.61	3.08	2.35	3.09	3.32	3.73	1.2	2.9	2.41	3.61	3.34		
CCC1c2[nH]c3ccccc3c2C[C@H]2C(=O)NC(COC(C)(C)C)C(=O)N12 (stereo partly specified)	> 100	37.6	90.6	> 100	> 100	> 100	65.4	> 100	> 100	> 100	> 100	> 100	> 100	> 100		
Cc1cn(C2CC(ON3C(=O)c4ccccc4C3=O)C(CO)O2)c(=O)[nH]c1=O (stereo unspecified)	> 10		> 10	> 10	> 10	> 10	> 10	> 10	> 10		> 10	> 10	> 10	> 10	> 10	
CCN1c2nc3ccccc3nc2N(CC)c2nc3ccccc3nc21	> 100	> 100		> 100	> 100	> 100	> 100	> 100	> 100		> 100		> 100	> 100	> 100	
N#Cc1sc2nc(/C=C3/C=CC=CC3=O)c(O)n2c1N	> 100	> 100	> 100	> 100	> 100		> 100	> 100	> 100	> 100	> 100	> 100	> 100	> 100	> 100	
CCN1CCN(c2ccc(Nc3ccnc4ccc5nn(C)nc5c34)cc2)CC1	28	18.4	26.5	16.6	39.5	17.2	25.5	43.9	19.7		27	30.7	26.7		26	
CC1=NC(=Cc2ccc(O)cc2)C(=O)N1n1c(-c2ccccc2)nc2ccccc2c1=O	> 100	> 100		> 100	> 100	> 100	> 100	> 100	> 100	> 100		> 100	> 100	> 100	> 100	
C[C@H]1[C@H](C)CC[C@]2(C)CC[C@]3(C)C(=C[C@@H](O)[C@@H]4[C@@]5(C)[C@H](O)[C@@H](O)[C@H](O)C(C)(C)[C@@H]5CC[C@]43C)[C@H]12	> 100	> 100		> 100	> 100	> 100	> 100	> 100	> 100	> 100	> 100	> 100	> 100	> 100		18.7
c1cc(-c2ncc(-c3ccc4c(c3)CCCO4)o2)ccn1	> 100	91.5	92.5	32	> 100		> 100	> 100		63.7	66.5	43.5	> 100	> 100		
COc1ccnc2c1C(=O)c1nc3ccccc3c3ccnc-2c13	0.41	0.723		0.89	0.704	0.139	1.15	0.562		1.34	0.61	0.536	0.894	0.31	1.52	
